For one compound, Ki results are on record in ChEMBL document CHEMBL1152885 (Bioorg Med Chem Lett, 2009).

Targets include Carbonic anhydrase 4 (Homo sapiens, UniProt P22748); Carbonic anhydrase 1 (Homo sapiens, UniProt P00915); Carbonic anhydrase 14 (Homo sapiens, UniProt Q9ULX7); Carbonic anhydrase 9 (Homo sapiens, UniProt Q16790); Carbonic anhydrase 13 (Mus musculus, UniProt Q9D6N1); Carbonic anhydrase 6 (Homo sapiens, UniProt P23280); Carbonic anhydrase 12 (Homo sapiens, UniProt O43570); Carbonic anhydrase 3 (Homo sapiens, UniProt P07451).

Assay [1] has as its target Carbonic anhydrase 5B, mitochondrial (Homo sapiens, UniProt Q9Y2D0).

Sequence of Carbonic anhydrase 13 (Q9D6N1 whole entry): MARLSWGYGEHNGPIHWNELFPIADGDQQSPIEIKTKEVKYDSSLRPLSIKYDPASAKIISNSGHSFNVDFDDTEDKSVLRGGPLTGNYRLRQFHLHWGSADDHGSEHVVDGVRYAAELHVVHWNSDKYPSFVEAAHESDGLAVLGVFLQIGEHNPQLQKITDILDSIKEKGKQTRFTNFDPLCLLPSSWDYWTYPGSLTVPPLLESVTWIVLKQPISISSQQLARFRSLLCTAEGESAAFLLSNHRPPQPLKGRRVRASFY
Sequence of Carbonic anhydrase 5B, mitochondrial (Q9Y2D0 whole entry): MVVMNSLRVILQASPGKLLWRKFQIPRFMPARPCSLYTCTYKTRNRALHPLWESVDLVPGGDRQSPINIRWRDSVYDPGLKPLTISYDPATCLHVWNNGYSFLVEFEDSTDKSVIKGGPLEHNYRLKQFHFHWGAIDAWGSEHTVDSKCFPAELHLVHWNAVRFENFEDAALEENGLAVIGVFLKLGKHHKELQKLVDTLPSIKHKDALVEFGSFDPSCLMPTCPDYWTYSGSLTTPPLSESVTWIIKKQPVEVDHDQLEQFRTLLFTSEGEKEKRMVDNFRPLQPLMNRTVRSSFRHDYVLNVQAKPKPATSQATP
Sequence of Carbonic anhydrase 4 (P22748 whole entry): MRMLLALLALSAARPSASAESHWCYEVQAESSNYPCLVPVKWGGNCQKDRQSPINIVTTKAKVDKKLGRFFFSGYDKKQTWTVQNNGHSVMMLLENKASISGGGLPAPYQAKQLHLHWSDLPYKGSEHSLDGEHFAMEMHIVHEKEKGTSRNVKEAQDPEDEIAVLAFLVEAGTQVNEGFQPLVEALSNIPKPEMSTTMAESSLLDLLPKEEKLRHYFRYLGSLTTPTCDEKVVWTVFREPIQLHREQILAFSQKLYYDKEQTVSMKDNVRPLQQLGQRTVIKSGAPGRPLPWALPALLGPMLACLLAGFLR
Sequence of Carbonic anhydrase 12 (O43570 whole entry): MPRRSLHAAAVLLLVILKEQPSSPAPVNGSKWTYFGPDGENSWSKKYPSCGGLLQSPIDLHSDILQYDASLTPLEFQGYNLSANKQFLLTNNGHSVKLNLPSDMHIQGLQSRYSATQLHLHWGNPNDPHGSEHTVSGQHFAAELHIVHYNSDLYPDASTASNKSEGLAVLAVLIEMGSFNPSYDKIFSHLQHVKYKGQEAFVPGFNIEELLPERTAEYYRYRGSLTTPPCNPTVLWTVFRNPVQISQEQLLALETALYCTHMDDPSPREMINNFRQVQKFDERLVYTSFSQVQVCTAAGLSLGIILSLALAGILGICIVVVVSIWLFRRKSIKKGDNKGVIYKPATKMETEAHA
Sequence of Carbonic anhydrase 1 (P00915 whole entry): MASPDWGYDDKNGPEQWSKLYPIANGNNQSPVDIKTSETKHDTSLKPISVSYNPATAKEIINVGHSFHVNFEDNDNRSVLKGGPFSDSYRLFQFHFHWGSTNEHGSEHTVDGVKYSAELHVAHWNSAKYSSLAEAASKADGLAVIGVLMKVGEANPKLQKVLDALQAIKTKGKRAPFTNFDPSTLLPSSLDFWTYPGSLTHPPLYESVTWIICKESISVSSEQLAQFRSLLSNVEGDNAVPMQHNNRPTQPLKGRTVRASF
Sequence of Carbonic anhydrase 3 (P07451 whole entry): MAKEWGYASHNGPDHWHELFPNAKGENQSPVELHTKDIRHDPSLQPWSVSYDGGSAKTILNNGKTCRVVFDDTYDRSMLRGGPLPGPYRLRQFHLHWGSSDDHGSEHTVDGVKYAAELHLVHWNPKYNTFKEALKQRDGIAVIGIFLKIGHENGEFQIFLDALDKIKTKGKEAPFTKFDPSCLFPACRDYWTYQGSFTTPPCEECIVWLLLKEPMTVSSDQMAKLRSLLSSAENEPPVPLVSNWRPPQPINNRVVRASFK
Sequence of Carbonic anhydrase 14 (Q9ULX7 whole entry): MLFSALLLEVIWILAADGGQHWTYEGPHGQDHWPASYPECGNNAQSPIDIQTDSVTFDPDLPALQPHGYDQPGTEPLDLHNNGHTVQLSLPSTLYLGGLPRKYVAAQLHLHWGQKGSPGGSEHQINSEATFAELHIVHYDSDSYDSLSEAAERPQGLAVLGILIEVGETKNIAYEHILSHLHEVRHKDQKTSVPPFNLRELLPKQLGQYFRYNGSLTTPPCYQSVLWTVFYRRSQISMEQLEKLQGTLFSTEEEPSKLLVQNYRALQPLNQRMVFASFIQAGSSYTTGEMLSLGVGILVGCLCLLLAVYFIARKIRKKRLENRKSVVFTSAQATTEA
Sequence of Carbonic anhydrase 6 (P23280 whole entry): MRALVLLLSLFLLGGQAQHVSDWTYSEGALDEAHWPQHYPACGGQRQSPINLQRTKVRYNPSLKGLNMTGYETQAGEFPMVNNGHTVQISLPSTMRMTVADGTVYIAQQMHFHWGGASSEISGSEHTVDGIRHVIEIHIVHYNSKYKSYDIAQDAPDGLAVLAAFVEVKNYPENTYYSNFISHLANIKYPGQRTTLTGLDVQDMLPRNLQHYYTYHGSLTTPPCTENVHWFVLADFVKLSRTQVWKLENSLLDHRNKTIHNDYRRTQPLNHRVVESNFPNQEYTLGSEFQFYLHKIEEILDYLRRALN

For `NS(=O)(=O)c1ccc2[nH]c(-c3cscn3)nc2c1`, the Ki at Carbonic anhydrase 4 came out at 0.0489 µM; on Carbonic anhydrase 1 it was 0.0509 µM; in assay [1] it was 0.0409 µM; at Carbonic anhydrase 14, 0.424 µM; at Carbonic anhydrase 9, 0.0064 µM; on Carbonic anhydrase 13, 4.85 µM. Also, the Ki came out at 0.025 µM at Carbonic anhydrase 6, 0.0178 µM on Carbonic anhydrase 12 and 34.5 µM on Carbonic anhydrase 3.
